For data set [1], the target named is WNK-regulated kinase SPAK (Ste20-like proline/alanine-rich kinase) (Homo sapiens, UniProt Q9UEW8). Particulars: literature (Kikuchi et al. 2014); cited from earlier work.
The conditions of data set [2]: in vivo, cited from earlier work.
Data set [3] has as its system renal distal tubules. As to the kind of experiment: Intracellular Na+ imaging by 2-photon microscopy in SBFI-loaded live kidney slices ex vivo. It is filed as cell-based, mice. Particulars: Klotho/VDR kidney slices; co-treatment with 200 ng/ml rFGF23, 2 h; closantel 30 ng/mL; BF 15 µM; PD173074 10 nM (iFGFR1) or 25 nM (FGFR1/3); iFGFR pan 120 nM. The method, then: (§1) The preparation of kidney slices for ex vivo experiments was performed as described in Andrukhova O et al. (EMBO J., 2014. 33, 229-246). Longitudinal 200-µm-thick live slices from freshly isolated kidneys of 3-month-old male WT and Klotho/VDR mice were prepared using a Leica VT1000 Vibratome (Leica Microsystems), and were used for ex vivo treatment with various substances as described below.
(§2) Longitudinal 200-µm-thick live slices of freshly isolated kidneys were prepared using a Leica VT1000 Vibratome (Leica Microsystems). For Na^+ imaging, the kidney slices of WT and Klotho/VDR mice were incubated for 60 min at 37°C with 2 µM of the sodium-sensitive dye SBFI (Molecular Probes), diluted in DMSO (Merck Millipore International) and 20% Pluronic (Merck Millipore International). For Ca^2+ imaging, the kidney slices were incubated for 30 min at 37°C with 2 µM of the calcium-sensitive dye Fluo-4 (Molecular Probes), diluted in DMSO and 20% Pluronic. Thereafter, the slices were washed two times for 20 min each in 0.1M PBS, and were subsequently incubated in vitro with vehicle (PBS), rFGF23 R176/179Q [(100 or 200 ng/ml) kindly provided by Amgen Inc., Thousand Oaks, CA, USA], PD173074 (Sigma-Aldrich) (10 nM for inhibiting FGFR1 and 25 nM for inhibiting FGFR1 and 3), pan FGFR inhibitor [(120 nM) FIIN1 hydrochloride, Tocris Bioscience, Bristol, UK)], WNK signalling inhibitor Closantel (30 ng/mL, generous gift of Dario R. Alessi) alone or combined at 37°C, 5% CO2 / 95% air humidified atmosphere for 2 h. […] For visualization of intracellular Na^+ and Ca^2+ content, SBFI or Fluo-4 were excited by a Ti:sapphire laser (Chameleon, Coherent Inc.) at 820 nm. Images (512 × 512 pixels) were acquired every 30 sec at a depth of 60 - 80 µm. Fluorescence images were analyzed using Image J software. The whole epithelial layer of the distal tubules was selected by manually drawing the region of interest (ROI) to quantify intracellular Na^+ and Ca^2+ levels. Fluorescence intensity was quantified in 4-9 ROIs per image, and the ratio between the fluorescence intensity and the ROI area was calculated for each tubule. This ratio was used for all subsequent calculations.
(§3) To gain more insight into the functional role of the rFGF23-induced increase in distal renal tubular ion channel expression and the FGF receptors involved, we performed intracellular Ca^2+ and Na^+ imaging by 2-photon microscopy in Fluo-4- or SFBI-loaded and subsequently rFGF23-treated (100 or 200 ng/ml for 2 h), 200-µm-thick renal slices prepared from WT and Klotho/VDR mice.
(§4) In this example it was assessed whether the Klotho-independent FGF23 signalling pathway is mediated through FGFR3 and/or 4, given that FGFR2 expression was low in distal renal tubules (Figure 12A). To dissect between the latter receptors, Klotho/VDR kidney slices were treated with rFGF23 alone or in combination with an FGFR1/FGFR3 inhibitor and the WNK signalling inhibitor closantel.

The test system of data set [4] is renal distal tubules. As to the kind of experiment: Intracellular Ca2+ imaging by 2-photon microscopy in Fluo-4-loaded live kidney slices ex vivo. It is filed as cell-based, mice. The following applies: Klotho/VDR kidney slices; co-treatment with 200 ng/ml rFGF23, 2 h; ruthenium red 10 µM; closantel 30 ng/mL; PD173074 10 nM (iFGFR1) or 25 nM (FGFR1/3); iFGFR pan 120 nM. How it is done: as §1, §2, §3, §4

Data set [5] concerns 5/6 Nx (CKD) WT mice. As to the kind of experiment: 5/6 nephrectomy CKD model, closantel orally via the diet over 8 weeks. It counts as in vivo. The method, then: The 5/6 nephrectomy (5/6 Nx) was performed in two stages (Leelahavanichkul A et al., Kidney Int. 78, 2010. 1136-1153) under isoflurane anesthesia (Fig. 1A). Pain was managed by s.c. injections of buprenorphine, metamizol and meloxicam. Additionally, the animals were treated for 3 days postsurgery with the analgesic piritramid via the drinking water, starting 6 h postsurgery. At the first stage (wk -1), the left kidney was decapsulated to avoid ureter and adrenal damage, and the upper and lower poles were partially resected via a left flank incision. Bleeding was controlled by microfibrillar collagen hemostasis (Avitene, Davol, Cranston, RI). The upper and lower poles were weighed. One week later, the entire right kidney was removed via a right flank incision and weighed. Animals with insufficient kidney resection as determined by a ratio of < 0.55 for the removed left kidney weight to the removed right kidney weight were euthanized. In the Sham surgery control mice, a left flank incision was performed at step 1, both poles of kidney were identified, then the flank incision was closed; a subsequent right flank incision was performed at step 2; the right renal artery was identified, then the flank incision was closed. After each flank incision, muscles and skin were repositioned and sewed. Mortality was tracked throughout the study. Necropsy was not performed on animals that died early.
For this experiment, WT Sham and 5/6-Nx mice were fed powdered rescue diet throughout the study. Closantel (Abcam) was dissolved in 100% ethanol (vehicle), and mixed into the moistened diet. To achieve a loading dose of 5 mg/kg body weight, the drug was mixed into the food at an initial concentration of 30 mg/kg diet. […] All mice were killed 8 weeks postsurgery.
Central arterial pressure and cardiac hemodynamic parameters were assessed using a SPR-671NR pressure catheter (1.4 French; Millar Instruments). Mice were anesthetized with 1.5% isoflurane in oxygen. The catheter was inserted into the ascending aorta for measurement of central arterial pressure. Parameters of LV function (i.e., maximum rate of the pressure rise, contractility index, end-diastolic pressure, and isovolumetric relaxation time) were measured by placing the catheter into the left ventricle. All pressure recordings were performed at the same anesthesia level. Hemodynamic measurements were recorded over 5 min, and traces were analyzed using LabChartPro software and a blood pressure (BP) module. After pressure measurements, all animals were euthanized.
The blood volume was determined from plasma volume and hematocrit as described in Lee H B & Blaufox M D (J. Nucl. Med., 1985. 26, 72-76). Plasma volume was determined by Evans blue dye dilution (Barron W M et al., J. Clin. Invest, 1984. 73, 923-932). Briefly, 20 µl of a 0.4% (wt/vol) solution of Evans blue (Sigma) in sterile physiological saline was injected into a tail vein. Blood samples (10 µl) were collected at 10 min and 30 min after injection to measure disappearance kinetics. Tubes were centrifuged and the hematocrit was recorded. Evans blue concentration in the plasma was measured in duplicate as optical density using the 2-wavelength method.
Total kidney homogenates, kidney cortex homogenates or total cell membrane preparations were solubilized in Laemmli sample buffer, fractionated on SDS- PAGE (30 µg/well) and transferred to a nitrocellulose membrane (Thermo Scientific). […] After washing, membranes were incubated with horseradish peroxidase-conjugated secondary antibodies (Amersham Life Sciences). Specific signal was visualized by ECL kit (Amersham Life Sciences). The protein bands were quantified by Image Quant 5.0 software (Molecular Dynamics). Loading of the samples was normalized to Ponceau S stain. The expression levels were normalized to β-actin expression. […]

[6] abbreviates: Western blotting, renal total homogenates, CKD mice, 8 weeks postsurgery.
Where [7] appears, read: oral via diet once a week, 8 weeks postsurgery.

As a reminder, the bioavailability is the share of a dose that reaches the circulation, judged against a reference dose that is usually intravenous. As to `Cc1cc(C(C#N)c2ccc(Cl)cc2)c(Cl)cc1NC(=O)c1cc(I)cc(I)c1O` (centres unmarked) [closantel, N-[5-chloro-4-[(4-chlorophenyl)-cyanomethyl]-2-methylphenyl]-2-hydroxy-3,5-diiodobenzamide], the “inhibition of the WNK-regulated kinase SPAK” value in data set [1] is given as “potent inhibitors”. In addition, the bioavailability in data set [2] (po) is on record as about 50%. Besides, the plasma half-life in data set [2] is 14 days. The “rFGF23-induced increase in intracellular Na^+ fluorescence (distal tubular Na^+ uptake)” value in data set [3] is reported as “abrogated”. Also, in data set [4], the “rFGF23-induced increase in intracellular Ca^2+ fluorescence (distal tubular Ca^2+ uptake)” value is recorded as “abrogated”. The “urinary excretion of Na^+” value in data set [5] (CKD mice, 8 weeks postsurgery) is “increased”. Further, the “disease progression in CKD mice” value in data set [5] (Figure 13 legend, oral via diet once a week over 8 weeks) was “largely protects”. Further, in data set [5] (setting [6]), the “renal pNCC expression” value is “downregulation”, the “renal pNKCC expression” value is on record as “downregulation” and the “renal pWNK1 expression” value is recorded as “downregulation”. In data set [5] (setting [7]), the “CKD-induced increase in HW/BW ratio” value is “largely prevented”, the “CKD-induced increase in blood pressure” value is “largely prevented” and the “CKD-induced increase in blood volume” value was “largely prevented”. The “CKD-driven decline in GFR” value in data set [5] (oral via diet once a week, loading dose 5 mg/kg body weight, 8 weeks postsurgery) is “largely prevented”.

These data come from patent EP3403652A1, “PREVENTION AND TREATMENT OF FIBROBLAST GROWTH FACTOR 23 (FGF23)-ASSOCIATED DISORDERS INCLUDING CHRONIC KIDNEY DISEASE (CKD)” (Veterinärmedizinische Universität Wien, priority 2017, dated 2018).
